Test results reported in publication PMC5844890 (Scientific Reports, 2018).
Read-outs that look alike come from different tables or passages of the source.

Legend:
Type in all cases: cell-based
[1] = system: HMEC-1 cells; experiment: IncuCyte scratch wound migration assay with PI uptake; conditions: for uptake of PI (toxicity): at the lowest concentration inhibiting wound closure (0.5, 0.06 and 0.06 µM)
Procedure: Proper tubulin organization is not only required for cell division but also for cell motility and migration. Therefore, we evaluated the capacity of the compounds to inhibit the migration of HMEC-1 endothelial cells. To this end, we used the 96-well IncuCyte® scratch wound assay. After the creation of a cell-free zone (wound) in a confluent cell monolayer, compounds were added, and relative wound density was measured every minute and visualized in time-course plots. PI was added to all wells to visualize toxicity over time, i.e. only dead cells take up this cell-impermeable dye.
Figure 7 Inhibition of HMEC-1 migration. The 96-well IncuCyte® scratch wound assay was used to create a cell-free zone (wound) in a confluent cell monolayer. Next, compounds were added and the relative wound density was measured every minute and visualized in time-course plots (left panels). PI is added to all wells to visualize toxicity over time, i.e. only dead cells take up this cell-impermeable dye (right panels). Average ± SEM (n = 3) are shown.
Wounds were created in confluent HMEC-1 cells by means of the “Incucyte® wound maker”. Next, different concentrations of compound and PI were added and images were taken every 2 min for the duration of the experiment. The algorithm masks each phase-contrast image to identify the position of the wounded (cell-free) and unwounded (cell-occupied) zones. Relative wound density is calculated and visualized in time-course plots.

[2] = system: MDA-MB-231, CEM, HeLa and HMEC-1 cells; experiment: Anti-proliferative activity, summary over tumor and endothelial cell lines; conditions: Homo sapiens
Procedure: (§1) The anti-proliferative activity of the synthesized benzofurane derivatives was studied in three human cancer cell lines [breast carcinoma (MDA-MB-231), lymphoblastic leukemia (CEM) and cervical carcinoma (HeLa) cells] and one endothelial cell line [human microvascular endothelial cells (HMEC-1)].
(§2) HMEC-1 cells were seeded in 48-well plates at 20,000 cells/well. After 24 h, 5-fold dilutions of the compounds were added. The cells were allowed to proliferate 4 days in the presence of the compounds, trypsinized, and counted by means of a Coulter counter (Analis, Belgium). HeLa and MDA-MB-231 cells were seeded in 48-well plates at 10,000 cells/well. After 24 h, different concentrations of the compounds were added. After 3 days of incubation, the cells were trypsinized and counted in a Coulter counter. Suspension cells (human lymphoid Cem cells) were seeded in 96-well plates at 60,000 cells/well in the presence of different concentrations of the compounds, allowed to proliferate for 96 h, and counted in a Coulter counter. The 50% inhibitory concentration (IC50) was defined as the compound concentration required to reduce cell proliferation by 50%.

[3] = system: HMEC-1 cells; experiment: Anti-proliferative activity, HMEC-1 microvascular endothelial cells (Coulter counting); conditions: Homo sapiens, HMEC-1, 96 h; mean ± SD of three independent experiments; 4 days; read-out: Endothelial cells IC50 HMEC-1
Text: as §1
The human microvascular endothelial cell line HMEC-1 was obtained at passage 12 from the Centers for Disease Control and Prevention (Atlanta, GA, USA) and used from passage 17 till 27. Human breast carcinoma (MDA-MB-231), human cervical carcinoma (HeLa) and human T-lymphoid (CEM) cells were obtained from ATCC (Middlesex, UK). Cell lines were maintained in culture for up to 3 months and grown in DMEM, supplemented with 10% FBS, 0.01 M Hepes and 1 mM sodium pyruvate. All cells were cultured in a humidified 5% CO2 incubator at 37 °C.
as §2

[4] = Endothelial cell, range stated in the conclusions, read-out: IC50 (antiproliferative activity against tumor and endothelial cells)
[5] = range over tumor and endothelial cell lines, read-out: IC50 values ranging (antiproliferative, all cell lines of Table 1)

SMILES	lowest concentration inhibiting wound closure [1] [µM]	uptake of PI (toxicity) [1]	IC50 [2, 4] [nM]	IC50 [2, 5] [nM]	IC50 [3] [nM]
COCc1cc2cccc(NC(C)=C3C(=O)CC(c4ccccc4)CC3=O)c2o1 (stereo not shown) [Compound 27, 2-(1-((2-(Methoxymethyl)benzofuran-7-yl)amino)ethylidene)-5-phenylcyclohexane-1,3-dione]	0.06	No increased uptake of PI	8 to 31	9 to 51	16 ± 2
CC(Nc1cccc2cc(COCCCO)oc12)=C1C(=O)CC(c2ccccc2)CC1=O (stereo not shown) [Compound 28, 2-(1-((2-((3-Hydroxypropoxy)methyl)benzofuran-7-yl)amino)ethylidene)-5-phenylcyclohexane-1,3-dione]	0.06	No increased uptake of PI	8 to 31	9 to 51	38 ± 3
